pIC50: −log10 of the molar value.
Biological target: T1, His-tagged human recombinant DDR-2 kinase domain (His-TEV-DDR2 467-855 aa) (Homo sapiens, UniProt Q16832)
T1 construct: His-TEV-DDR2 467-855 aa
T1 sequence (Q16832 467-855): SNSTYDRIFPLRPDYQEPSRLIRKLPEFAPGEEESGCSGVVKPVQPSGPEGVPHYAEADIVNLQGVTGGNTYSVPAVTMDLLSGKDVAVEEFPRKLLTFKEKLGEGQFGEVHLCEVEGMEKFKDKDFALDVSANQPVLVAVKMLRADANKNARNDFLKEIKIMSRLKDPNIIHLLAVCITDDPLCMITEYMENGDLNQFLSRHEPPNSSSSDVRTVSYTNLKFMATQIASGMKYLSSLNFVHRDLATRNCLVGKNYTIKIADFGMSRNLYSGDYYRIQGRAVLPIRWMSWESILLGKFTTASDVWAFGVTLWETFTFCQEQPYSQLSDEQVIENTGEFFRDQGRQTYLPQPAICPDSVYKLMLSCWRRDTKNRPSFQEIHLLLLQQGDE
Test: Autophosphorylation assay for biochemical activity testing of DDR2 (HTRF)
Conditions: biochemical DDR2 autophosphorylation
How it was run: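 Phospho-tyrosine was detected by HTRF between XL665 anti-6His and cryptate anti-phosphotyrosine PT66 antibodies, using the emission ratio. Inhibition was referenced to the inhibitor-free reaction.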

| pIC50 | SMILES |
| --- | --- |
| 6.92 | CNC(=O)c1cc(Oc2ccc(CNC(=O)Nc3cc(C(F)(F)F)c(Cl)cc3OCCN)cc2)ccn1 [compound 140, 4-(4-{3-[2-(2-Amino-ethoxy)-4-chloro-5-trifluoromethyl-phenyl]-ureidomethyl}-phenoxy)-pyridine-2-carboxylic acid methylamide] |
| 7.39 | CNCCOc1cc(Cl)c(C(F)(F)F)cc1NC(=O)NCc1ccc(Oc2ccnc(C(=O)NC)c2)c(C)c1 [compound 147, 4-(4-{3-[4-Chloro-2-(2-methylamino-ethoxy)-5-trifluoromethyl-phenyl]-ureidomethyl}-2-methyl-phenoxy)-pyridine-2-carboxylic acid methylamide] |
| 7.00 | CNC(=O)c1cc(Oc2ccc(CNC(=O)Nc3cc(Cl)c(C)cc3OC)cc2C)ccn1 [compound 151, 4-{4-[3-(5-Chloro-2-methoxy-4-methyl-phenyl)-ureidomethyl]-2-methyl-phenoxy}-pyridine-2-carboxylic acid methylamide] |
| 7.60 | CNC(=O)c1cc(Oc2ccc(CNC(=O)Nc3cc(C(F)(F)F)c(Cl)cc3OCCN(C)C)cc2C)ccn1 [compound 152, 4-(4-{3-[4-Chloro-2-(2-dimethylamino-ethoxy)-5-trifluoromethyl-phenyl]-ureidomethyl}-2-methyl-phenoxy)-pyridine-2-carboxylic acid methylamide] |
| 7.08 | CNC(=O)c1cc(Oc2ccc(CNC(=O)Nc3cc(C)ccc3OC3CCNCC3)cc2)ccn1 [compound 159, 4-(4-{3-[5-Methyl-2-(piperidin-4-yloxy)-phenyl]-ureidomethyl}-phenoxy)-pyridine-2-carboxylic acid methylamide] |
| 6.85 | CNC(=O)c1cc(Oc2ccc(CNC(=O)Nc3cc(C(F)(F)F)ccc3OCCOC)cc2)ccn1 [compound 166, 4-(4-{3-[2-(2-Methoxy-ethoxy)-5-trifluoromethyl-phenyl]-ureidomethyl}-phenoxy)-pyridine-2-carboxylic acid methylamide] |
| 6.89 | CNC(=O)c1cc(Oc2ccc(CNC(=O)Nc3cc(C(F)(F)F)ccc3OCCOC)cc2C)ccn1 [compound 168, 4-(4-{3-[2-(2-Methoxy-ethoxy)-5-trifluoromethyl-phenyl]-ureidomethyl}-2-methyl-phenoxy)-pyridine-2-carboxylic acid methylamide] |
| 7.33 | CNC(=O)c1cc(Oc2ccc(CNC(=O)Nc3cc(C)ccc3OC3CCNCC3)cc2C)ccn1 [compound 171, 4-(2-Methyl-4-{3-[5-methyl-2-(piperidin-4-yloxy)-phenyl]-ureidomethyl}-phenoxy)-pyridine-2-carboxylic acid methylamide] |
| 6.59 | CNC(=O)c1cc(Oc2ccc(CNC(=O)Nc3cc(Cl)c(C)cc3OCCN3CCCC3)cc2)ccn1 [compound 173, 4-(4-{3-[5-Chloro-4-methyl-2-(2-pyrrolidin-1-yl-ethoxy)-phenyl]-ureidomethyl}-phenoxy)-pyridine-2-carboxylic acid methylamide] |
| 7.57 | CNC(=O)c1cc(Oc2ccc(CNC(=O)Nc3cc(Cl)c(C)cc3OCCN)cc2)ccn1 [compound 176, 4-(4-{3-[2-(2-Amino-ethoxy)-5-chloro-4-methyl-phenyl]-ureidomethyl}-phenoxy)-pyridine-2-carboxylic acid methylamide] |

| SMILES | pIC50 |
| --- | --- |
| CNC(=O)c1cc(Oc2ccc(CNC(=O)Nc3cc(C)c(Cl)cc3OCCCCN(C)C)cc2)ccn1 [compound 161, 4-(4-{3-[4-Chloro-2-(4-dimethylamino-butoxy)-5-methyl-phenyl]-ureidomethyl}-phenoxy)-pyridine-2-carboxylic acid methylamide] | 6.80 |
| CNC(=O)c1cc(Oc2ccc(CNC(=O)Nc3cc(C)c(Cl)cc3OCCCCN(C)C)cc2C)ccn1 [compound 165, 4-(4-{3-[4-Chloro-2-(4-dimethylamino-butoxy)-5-methyl-phenyl]-ureidomethyl}-2-methyl-phenoxy)-pyridine-2-carboxylic acid methylamide] | 6.68 |

Source: patent publication US20150225369A1, “DDR2 INHIBITORS FOR THE TREATMENT OF OSTEOARTHRITIS” (Merck Patent GmbH, priority 2012, published 2015)
